Holding throughout (format): in vivo, human
The test system of experiment [1] is adult patients with MDD. Kind of experiment: TAK-315 Trial: change from baseline in MADRS total score, 8 weeks of treatment. The method, then:
(§1) Multicenter, randomized, double-blind, parallel-group, placebo-controlled, drug-referenced, fixed-dose studies were conducted to evaluate the efficacy and safety of vortioxetine in the acute treatment of adult patients with MDD. A total of 595 individuals meeting the diagnostic criteria from the DSM-IV-TR for recurrent MDD were included in the studies, TAK-315, -316 and -317. The current major depressive disorder for each individual was confirmed by the Structured Clinical Interview for DSM Disorders (SCID). […] Individuals were treated with 10, 15 or 20 mg vortioxetine, or a different drug, or administered a placebo daily for 8 weeks.
(§2) Subjects were seen weekly during the first 2 weeks of treatment and then every 2 weeks up to the end of the 8-week treatment period. The primary outcome measure was change from baseline in MADRS total score after 8 Weeks of treatment. MADRS is a depression rating scale consisting of 10 items, each rated 0 (no symptom) to 6 (severe symptom). The 10 items represent the core symptoms of depressive illness. The rating is based on a clinical interview with the patient, moving from broadly phrased questions about symptoms to more detailed ones, which allow a precise rating of severity, covering the most recent 7 days. Total score is from 0 to 60, with a higher the score being the more severe. […]

For experiment [2], the system named is adult patients with MDD. Kind of experiment: TAK-316 Trial: change from baseline in MADRS total score, 8 weeks of treatment. As for the experimental part:
as §1, §2

The subject of experiment [3] is adult patients with MDD. Kind of experiment: Combined TAK-315 and TAK-316 Trials: predicted MADRS response rate by 24-SNP placebo subgroup. As for the experimental part: as §1
Secondary outcome measures included the proportion of responders at week 8 (responders defined as a 50% decrease in MADRS total score from baseline); a change from baseline in MADRS total score at week 8; and a change in clinical status using CGI-I score at week 8. The CGI-I scale is a 7-point scale rated from 1 (very much improved) to 7 (very much worse). The investigator rated the patient's overall improvement relative to baseline, whether or not, in the opinion of the investigator, this was entirely due to the treatment.
A main effect model was utilized to identify genes or single variants prognostic of response using the placebo samples.
In the placebo arm, the mean response rate in the subgroup [N=125; BM(+)] was 47.33% (CL: 0.38-0.57) and not in the subgroup [N=94; BM(−)] was 15.52% (CL: 0.1-0.25). The subgroup size in the placebo arm was 57.1% [BM(+)] and 42.9% [BM(−)]. […] The placebo subgroup size in the Vortioxetine 20 mg treat arm was 45.9(%) [BM(+), N=89] and 54.1% [BM(−), N=105].
FIG. 8 provides a comparison of the 24 SNP placebo model in the three trials' (TAK-315, 316 & 317) placebo arms and the 20 mg vortioxetine dose in TAK-315 and -316. […] In the placebo arm the mean response rate in the subgroup [N=187; BM(+)] was 46.63% (CL: 0.39-0.55) and not in the subgroup [N=148; BM(−)] was 17.02% (CL: 0.12-0.24). The subgroup size in the placebo arm was 55.8% [BM(+)] and 44.2% [BM(−)]. […] The subgroup size in the Vortioxetine 20 mg treat arm was 45.9% [BM(+), N=89] and 54.1% [BM(−), N=105].

Setting [4] is: 20 mg vortioxetine daily, 8 weeks.

On to `Cc1ccc(Sc2ccccc2N2CCNCC2)c(C)c1` [vortioxetine], for which the “LS mean (SE) change from baseline in MADRS score” value in the experiment with adult patients with MDD [1] (setting [4]) is −15.56 (1.67); in the experiment on adult patients with MDD [2] (setting [4]), −13.87 (1.63). Also, the “LS mean difference in MADRS change, active vs. placebo BM(+)” value in the experiment with adult patients with MDD [1] (20 mg vortioxetine vs 24-SNP Placebo BM(+) subgroup, SE 2.11) came out at 0.12; in the experiment with adult patients with MDD [2] (20 mg vortioxetine vs 24-SNP Placebo BM(+) subgroup, SE 2.14) it was 0.12. Moreover, the “mean response rate (MADRS, LSmean predicted response rate)” value in the experiment with adult patients with MDD [3] (Vortioxetine 20 mg arm (TAK-315 and -316), placebo BM(+) subgroup N=89, analysis with TAK-315/316/317 placebo arms (FIG. 8)) was 36.00%; with adult patients with MDD [3] (Vortioxetine 20 mg arm (TAK-315 and -316), placebo BM(−) subgroup N=105, analysis with TAK-315/316/317 placebo arms (FIG. 8)) it was 44.0%; with adult patients with MDD [3] (Vortioxetine 20 mg arm, placebo BM(+) subgroup N=89, TAK-315/316 analysis (FIG. 6)), 35.96%; in the experiment with adult patients with MDD [3] (Vortioxetine 20 mg arm, placebo BM(−) subgroup N=105, TAK-315/316 analysis (FIG. 6)) it was 43.0%.

Source of the values: patent US20190078161A1, “METHOD FOR IDENTIFYING CLINICAL TRIAL RESPONDERS FROM A PLACEBO GROUP IN MAJOR DEPRESSION” (Tekada Pharmaceutical Company Limited, priority 2016, published 2019).
